Reference: patent US7402683B2, “Cinnamic acid amides” (Bayer HealthCare AG, priority 2002, dated 2008)

What was measured:
[1] = system: Haemophilus influenzae Spain 7; experiment: Determination of the minimum inhibitory concentration (MIC), liquid dilution test; assay type: cell-based; settings: BHI broth plus 20% bovine serum, 10 μg/ml hemin and 1% Isovitale, 37° C., 18-24 hours, 8-10% CO2
Experimental: (§1) Determination of the Minimum Inhibitory Concentration (MIC):
(§2) The MIC is determined in a liquid dilution test. Overnight cultures of the test organisms are diluted to a cell count of 10^5 organisms per ml in Isosensitest medium (Difco, Irvine, USA) and are incubated with dilutions of the test substances (1:2 dilution stages). Exceptions are the tests with S. pneumoniae G9A, which are conducted in BHI broth (Difco) plus 20% bovine serum, and with H. influenzae, which are conducted in BHI broth (Difco) plus 20% bovine serum, 10 μg/ml hemin and 1% Isovitale (Becton Dickinson, N.J., USA).
(§3) The cultures are incubated at 37° C. for 18-24 hours; S. pneumoniae and H. influenzae in the presence of 8-10% CO2.
(§4) The lowest concentration of each substance at which there is no longer any visible bacterial growth is defined as the MIC. The MICs in μmol/1 of some compounds of the invention against a series of test organisms are listed by way of example in the table below.

[2] = system: Staphylococcus aureus 133; experiment: as above; assay type: cell-based; settings: Isosensitest medium, 10^5 organisms per ml, 37° C., 18-24 hours; lowest concentration with no visible bacterial growth
Experimental: as §1, §2, §3, §4

bacteria = settings: described in the literature; cited from earlier work

Row | MIC Haemophilus influenzae Spain 7 [1] | MIC Staphylococcus aureus 133 [2] | Structure (SMILES) | antibacterial activity (bacteria)
1 | 31.3 μmol/1 | 3.9 μmol/1 | CC(C)[C@H](NC(=O)C[C@H](NC(=O)/C=C/c1ccc2c(c1)OCO2)c1ccccc1)C(=O)[C@@H]1C(=O)NC(=O)[C@H]1C [Example 1, (2E)-3-(1,3-Benzodioxol-5-yl)-N-{(1S)-3-[((1S)-2-methyl-1-{[(3R,4S)-4-methyl-2,5-dioxo-3-pyrrolidinyl]carbonyl}propyl)amino]-3-oxo-1-phenylpropyl}-2-propenamide] | –
2 | 31.3 μmol/1 | 7.8 μmol/1 | C[C@@H]1C(=O)NC(=O)[C@H]1C(=O)[C@@H](NC(=O)C[C@H](NC(=O)/C=C/c1ccc2c(c1)OCO2)c1ccccc1)C(C)(C)C [Example 2, (2E)-3-(1,3-Benzodioxol-5-yl)-N-{(1S)-3-[((1S)-2,2-dimethyl-1-{[(3R,4S)-4-methyl-2,5-dioxo-3-pyrrolidinyl]carbonyl}propyl)amino]-3-oxo-1-phenylpropyl}-2-propenamide] | –
3 | 62.5 μmol/1 | 7.8 μmol/1 | CC(C)[C@H](NC(=O)C[C@H](NC(=O)/C=C/c1ccsc1)c1ccccc1)C(=O)[C@@H]1C(=O)NC(=O)[C@H]1C [Example 11] | –
4 | 31.3 μmol/1 | <1 μmol/1 | C[C@@H]1C(=O)NC(=O)[C@H]1C(=O)[C@@H](NC(=O)C[C@H](NC(=O)/C=C/c1ccc2c(c1)OCO2)c1ccccc1)C1CCCC1 [Example 31, (2E)-3-(2H-Benzo[d]1,3-dioxolan-5-yl)-N-((1S)-2-{N-[(1S)-2-((4S,3R)-4-methyl-2,5-dioxoazolin-3-yl)-1-cyclopentyl-2-oxoethyl]carbamoyl}-1-phenylethyl)prop-2-enamide] | –
5 | 7.8 μmol/1 | <1 μmol/1 | C[C@@H]1C(=O)N(N)C(=O)[C@H]1C(=O)[C@@H](NC(=O)C[C@H](NC(=O)/C=C/c1ccc(C#N)cc1)c1ccccc1)C1CCCC1 [Example 34, (2E)-N-((1S)-2-{N-[(1S)-2-((4S,3R)-1-amino-4-methyl-2,5-dioxoazolidin-3-yl)-1-cyclopentyl-2-oxoethyl]carbamoyl}-1-phenylethyl)-3-(4-cyanophenyl)prop-2-enamide] | –
6 | 15.6 μmol/1 | <1 μmol/1 | CC(C)[C@H](NC(=O)CC(NC(=O)/C=C/c1ccc2c(c1)OCO2)c1ccc2ccccc2c1)C(=O)[C@@H]1C(=O)NC(=O)[C@H]1C (some centres unmarked) [Example 92] | –
7 | – | – | C/C=C/C=C/C=C/C(=O)N[C@@H](CC(=O)N[C@H](C(=O)[C@@H]1C(=O)NC(=O)[C@H]1C)C(C)C)c1ccccc1 [andrimid] | having antibacterial activity
8 | – | – | C/C=C/C=C/C(=O)N[C@@H](CC(=O)N[C@H](C(=O)[C@@H]1C(=O)NC(=O)[C@H]1C)C(C)C)c1ccccc1 [moiramide B] | having antibacterial activity
9 | – | – | C/C=C/C=C/C=C/C(=O)N[C@@H](CC(=O)N[C@H](C(=O)[C@@]1(O)C(=O)NC(=O)[C@H]1C)C(C)C)c1ccccc1 [moiramide C] | inactive

Row | Structure (SMILES) | MIC Haemophilus influenzae Spain 7 [1] | MIC Staphylococcus aureus 133 [2] | antibacterial activity (bacteria)
10 | CC(C)[C@H](NC(=O)CC(NC(=O)/C=C/c1ccc2c(c1)OCO2)c1ccc2c(c1)OCCO2)C(=O)[C@@H]1C(=O)NC(=O)[C@H]1C (stereo partly drawn) [Example 5, (2E)-3-(1,3-Benzodioxol-5-yl)-N-{1-(2,3-dihydro-1,4-benzodioxin-6-yl)-3-[((1S)-2-methyl-1-{[(3R,4S)-4-methyl-2,5-dioxo-3-pyrrolidinyl]carbonyl}propyl)amino]-3-oxopropyl}-2-propenamide] | 3.9 μmol/1 | 7.8 μmol/1 | –
